Assay results as given in patent US20260103479A1, “PRODRUGS OF OPICAPONE” (BIAL- PORTELA & CA, S.A., priority 2022, published 2026).
≈ marks a conversion by molar mass, not a printed value.

Experiments:
[1] = Oral pharmacokinetics in rats; format: in vivo, male Wistar rats; details: p.o. 3 mg/kg; for Cmax / Tmax / AUC(0-t): male, Wistar, po, rat plasma, analyte prodrug; for AUC(0-t): read-out: AUClast of prodrug; for opicapone pharmacokinetic profile after oral prodrug (comparison): FIG. 3b
Procedure: The pharmacokinetic properties of compounds 1 and 4 compared to micronized crystalline opicapone were assessed by oral administrations to 4 male Wistar rats (3 mg/kg; 0.2% HPMC).
(§1) During the studies, blood was collected at different time points, from tail vein, spun at 1500×g in a refrigerated centrifuge (4° C.) for 15 min, and the plasma obtained was stored at −80° C. until further analysis. The plasma samples collected were analysed for compound 1, compound 4 and opicapone exposure. The bioanalysis involved the use of LC-MS/MS after plasma precipitation.

[2] = In vitro stability / conversion to opicapone in rat liver homogenates; format: in vitro ADME; details: 1 μM
Procedure: (§2) The stability of 1 μM of compound 1 was assessed in the following fractions: phosphate buffer, human plasma, rat plasma, human liver S9 fraction, rat liver S9 fraction and rat liver homogenates.
(§3) Reaction was initiated by adding of 1 μM of test compound to the desired matrix (plasma, liver homogenate at 0.4 g/mL or S9 fraction at 1 mg/mL, respectively), with a final volume of 350 μL. At the following time points 0, 5, 15, 30, 45, 60 min, 50 μL of sample is taken and precipitated with 200 μL of acetonitrile 1% formic acid containing the internal standard (opicapone ^13C6) at 1 μM. Samples were centrifuged at 20,000 g at 4° C. for 10 min, and then analysed by LC-MS/MS using a bioanalytical method previously developed in-house.
(§4) The stability of 1 μM of compound 4 was assessed in the following fractions: phosphate buffer, human plasma, rat plasma, human liver S9 fraction, rat liver S9 fraction and rat liver homogenates.
Reaction was initiated by adding 1 μM of test compound to the desired matrix (plasma or S9 fraction at 1 mg/mL), with a final volume of 250 μL. For plasma, at the time points of 0, 15, 30, 45 and 60 min of incubation, 50 μL of sample is taken and precipitated with 100 μL of internal standard working solution (ISWS) consisting of acetonitrile 1% formic acid containing the internal standard (opicapone ^13C6) at 1 μM. For S9 fraction, 50 μL of sample was taken and precipitated with 100 μL of ISWS after 60 min of incubation. For rat liver homogenates (0.2 g/mL of protein), reaction was initiated by adding of 1 μM of test compound with a final volume of 350 μL. At the following time points of 0, 5, 15, 30, 45, 60 min of incubation, 50 μL of sample is taken and precipitated with 200 μL ISWS. Samples were centrifuged at 20,000 g at 4° C. for 10 min, and then analysed by LC-MS/MS using bioanalytical methods previously developed in-house. Compound 4 was stable in all matrices with exception of rat liver homogenates, where the remaining compound was of approximately 31%, after 60 min of incubation. Solutions of the test compounds were prepared at 10 μM using 50 mM potassium phosphate buffer (KPB) at pH 7.4, by adding 1 μL of compound stock at 10 mM to 999 μL KPB 50 mM.

[3] = Long-term stability studies in the solid state; format: physicochemical
[4] = Intravenous pharmacokinetics in rats; format: in vivo, male Wistar rats; details: i.v. 1 mg/kg; for opicapone pharmacokinetic profile after intravenous prodrug (comparison): FIG. 4b; for AUC(0-t): read-out: AUClast of prodrug; for half-life: read-out: t1/2 of prodrug (converted); for Vd / clearance: plasma; for clearance: read-out: CL of prodrug (converted)
Procedure: The pharmacokinetic properties of compounds 1 and 4 compared to micronized crystalline opicapone were assessed by intravenous injection to 3 male Wistar rats (1 mg/kg; DMSO:20% HPBCD (1:9).
as §1, with “jugular” for “tail”

[5] = In vitro stability in rat liver S9 fraction; format: in vitro ADME; details: 1 μM; S9 1 mg/mL; after 0.75 h
Procedure: as §2, §3, §4
(§5) Reaction was initiated by adding 1 μM of test compound to the desired matrix (plasma or S9 fraction at 1 mg/mL), with a final volume of 250 μL. […] Samples were centrifuged at 20,000 g at 4° C. for 10 min, and then analysed by LC-MS/MS using bioanalytical methods previously developed in-house. […]

[6] = In vitro stability in human plasma; format: in vitro ADME; details: 1 μM; after 0.75 h
Procedure: as §2, §3, §4, §5

[7] = In vitro stability in potassium phosphate buffer pH 7.4; format: physicochemical; details: 1 μM, after 0.75 h
Procedure: as §2, §3
Solutions of the test compounds were prepared at 10 μM using 50 mM potassium phosphate buffer (KPB) at pH 7.4, by adding 1 μL of compound stock at 10 mM to 999 μL KPB 50 mM. […]
as §4, §5

[8] = In vitro stability in rat plasma; format: in vitro ADME; details: 1 μM; after 0.75 h
Procedure: as §2, §3, §4, §5

[9] = Aqueous solubility in distilled (pure) water at room temperature; details: thermodynamic from solid
Procedure: (§6) The solubility studies were completed at room temperature. For the determination of the solubility increasing amounts of distilled water was added to 5 mg of the test sample until its complete dissolution of the product observed by naked eye.

[10] = Subcutaneous pharmacokinetics in rats; format: in vivo, male Wistar rats; details: s.c. 3 mg/kg; for Cmax / Tmax / AUC(0-t): male, Wistar, sc, rat plasma, analyte prodrug; for AUC(0-t): read-out: AUClast of prodrug; for irritation at the injection site: DMSO:20% HPBCD (1:9), rat
Procedure: The pharmacokinetic properties of compounds 1 and 4 were assessed by subcutaneous injection to 4 male Wistar rats (3 mg/kg; DMSO:20% HPBCD (1:9)).
as §1

[11] = tested on: L-DOPA metabolism; assay: Subcutaneous pharmacodynamics: impact on L-DOPA and 3-OMD plasma levels; format: in vivo, male Wistar rats; details: s.c. 3 mg/kg with 12 mg/kg L-DOPA plus 3 mg/kg benserazide vs without compound; rat
Procedure: As proof-of-concept, the effects of compound 4 on L-DOPA metabolism was evaluated in 4 male Wistar rats. Animals were subcutaneously injected with a single formulation (in DMSO:PEG 400:30% SBEBCD (1:2:2)) containing 12 mg/kg of L-DOPA plus 3 mg/kg of benserazide with or without 3 mg/kg of compound 4. Plasma samples were collected as described above and analyzed for levels of L-DOPA and its metabolite 3-O-methyldopa (3-OMD).

[12] = physchem; details: water, thermodynamic from solid
Procedure: as §6

[13] = male, Wistar, iv, rat plasma, analyte prodrug
[14] = male, Wistar, iv, rat, analyte prodrug

Row | SMILES | Cmax [1] | Tmax [1] | AUC(0-t) [1] | opicapone pharmacokinetic profile after oral prodrug (comparison) ([1]; rat) | conversion to opicapone in rat liver homogenates [2] | opicapone pharmacokinetic profile after intravenous prodrug (comparison) ([4]; rat) | C0 [4, 13] | AUC(0-t) [4, 13] | half-life [4, 13] | Vd [4, 14] | clearance [4, 14] | stability in rat liver S9 fraction [5] | stability in human plasma [6] | stability in buffer [7] | stability in rat plasma [8] | Cmax [10] | Tmax [10] | AUC(0-t) [10] | irritation at the injection site [10] | also measured
1 | Cc1c(Cl)c(C)[n+]([O-])c(Cl)c1-c1noc(-c2cc(OCOP(=O)(O)O)c(O)c([N+](=O)[O-])c2)n1 [Compound 4, 2,5-dichloro-3-(5-(4-hydroxy-3-nitro-5-((phosphonooxy)methoxy)phenyl)-1,2,4-oxadiazol-3-yl)-4,6-dimethylpyridine 1-oxide] | 32.5 ng/mL | 30 min | 26.5 ng·h/mL | worse oral pharmacokinetic parameters | successfully converted to opicapone | worse intravenous pharmacokinetic parameters | 21900 ng/mL | 4990 ng·h/mL | 174 min | 1.99 L/kg | 3.58 mL/min/kg | stable | stable | stable | stable | 3140 ng/mL | 30 min | 9660 ng·h/mL | low levels of irritation | remaining compound ([2]; rat liver homogenates 0.2 g/mL, after 60 min of incubation): approximately 31%; long-term stability in the solid state [3]: particularly stable; Tmax [4, 13]: 4.8 min; solubility [9]: > 500 µg/mL; increase in the AUClast of circulating L-DOPA [11]: 1.7 fold; levels of L-DOPA metabolite 3-OMD [11]: decrease
2 | Cc1c(Cl)c(C)[n+]([O-])c(Cl)c1-c1noc(-c2cc(OP(=O)(O)O)c(O)c([N+](=O)[O-])c2)n1 [Compound 1, 2,5-dichloro-3-(5-(4-hydroxy-3-nitro-5-(phosphonooxy)phenyl)-1,2,4-oxadiazol-3-yl)-4,6-dimethylpyridine 1-oxide] | 146 ng/mL | 30 min | 417 ng·h/mL | comparable to opicapone itself | successfully converted to opicapone | comparable to opicapone itself | 29400 ng/mL | 30700 ng·h/mL | 156 min | 0.123 L/kg | 0.643 mL/min/kg | stable | stable | stable | stable | 7770 ng/mL | 60 min | 15500 ng·h/mL | low levels of irritation | oral pharmacokinetic properties of the prodrug (comparison) ([1]; rat, FIG. 3a): improved pharmacokinetic properties compared to compound 4; % remaining of the parent compound ([2]; rat liver homogenate 0.4 g/mL, after 0.5 h): less than 25%; intravenous pharmacokinetic properties of the prodrug (comparison) ([4]; rat, FIG. 4a): improved pharmacokinetic properties compared to compound 4; solubility [12]: 6000 µg/mL (≈ 12.2 mM)
